Columns and labels:
Spodoptera littoralis = Spodoptera littoralis (Egyptian cotton leaf worm) leaf disc spray test; type: in vivo; details: foliar, 72 h, application rate of 200 ppm, cotton leaf discs, L1 larvae, 3 days after infestation, read-out: control (at least one of mortality, anti-feedant effect, growth inhibition)
Protocol: Spodoptera littoralis (Egyptian Cotton Leaf Worm)
Cotton leaf discs were placed on agar in 24-well microtiter plates and sprayed with aqueous test solutions prepared from 10'000 ppm DMSO stock solutions. After drying the leaf discs were infested with five L1 larvae. The samples were assessed for mortality, anti-feedant effect, and growth inhibition in comparison to untreated samples 3 days after infestation. Control of Spodoptera littoralis by a test sample is when at least one of mortality, anti-feedant effect, and growth inhibition is higher than the untreated sample.

Diabrotica balteata = Diabrotica balteata (corn root worm) maize sprout test; type: in vivo; details: 96 h, application rate of 200 ppm, maize sprouts, L2 larvae, 4 days after infestation, read-out: effect in at least one of the two categories (mortality or growth inhibition)
Protocol: Diabrotica balteata, (Corn Root Worm)
Maize sprouts, placed on an agar layer in 24-well microtiter plates were treated with aqueous test solutions prepared from 10'000 ppm DMSO stock solutions by spraying. After drying, the plates were infested with L2 larvae (6 to 10 per well). The samples were assessed for mortality and growth inhibition in comparison to untreated samples 4 days after infestation. The following compounds gave an effect of at least 80% in at least one of the two categories (mortality or growth inhibition) at an application rate of 200 ppm: 1, 3, 4, 5, 6, 7, 8, 9, 10, 11, 12, 14, 15, 16, 17, 18, 19, 20, 21, 22, 23, 24, 25, 26, 27, 28, 29, 30, 31, 32, 33, 35, 36, 37, 38, 39, 40, 41, 42, 43, 44, 45, 48, 50, 51, 52, 53, 54 and 55.

Plutella xylostella = Plutella xylostella (diamond back moth) artificial diet test; type: in vivo; details: 120 h, application rate of 200 ppm, L2 larvae, 5 days after infestation, read-out: effect in at least one of the two categories (mortality or growth inhibition)
Protocol: Plutella xylostella (Diamond Back Moth):
24-well microtiter plates with artificial diet were treated with aqueous test solutions prepared from 10'000 ppm DMSO stock solutions by pipetting. After drying, the plates were infested with L2 larvae (10 to 15 per well). The samples were assessed for mortality and growth inhibition in comparison to untreated samples 5 days after infestation. The following compounds gave an effect of at least 80% in at least one of the two categories (mortality or growth inhibition) at an application rate of 200 ppm: 1, 2, 3, 4, 5, 6, 7, 8, 9, 10, 11, 12, 13, 14, 15, 16, 17, 18, 19, 20, 21, 22, 23, 24, 25, 26, 27, 28, 29, 30, 31, 32, 33, 35, 36, 37, 38, 39, 40, 41, 42, 43, 44, 45, 46, 47, 48, 50, 51, 52, 53, 54 and 55.

Thrips tabaci = Thrips tabaci (onion thrips) sunflower leaf disc test; type: in vivo; details: foliar, 144 h, application rate of 200 ppm, sunflower leaf discs, mixed ages, 6 days after infestation
Protocol: Thrips tabaci (Onion thrips):
(§1) Sunflower leaf discs were placed on agar in 24-well microtiter plates and sprayed with aqueous test solutions prepared from 10'000 ppm DMSO stock solutions. After drying the leaf discs were infested with a thrips population of mixed ages. The samples were assessed for mortality 6 days after infestation.

Tetranychus urticae = Tetranychus urticae (two-spotted spider mite) bean leaf disc test; type: in vivo; details: foliar, 192 h, application rate of 200 ppm, bean leaf discs, mixed population (mobile stages), 8 days after infestation
Protocol: Tetranychus urticae (Two-Spotted Spider Mite):
as §1, with “Bean” for “Sunflower”, “discs” for “discs were placed”, “were” for “and”, “mite” for “thrips”, “on mixed population (mobile stages) 8” for “6”

Euschistus heros = Euschistus heros (neotropical brown stink bug) soybean leaf test; type: in vivo; details: 120 h, application rate of 200 ppm, soybean leaves, N2 nymphs, 5 days after infestation, read-out: effect in at least one of the two categories (mortality or growth inhibition)
Protocol: Euschistus heros (Neotropical Brown Stink Bug)
Soybean leaves on agar in 24-well microtiter plates were sprayed with aqueous test solutions prepared from 10'000 ppm DMSO stock solutions. After drying the leaves were infested with N2 nymphs. The samples were assessed for mortality and growth inhibition in comparison to untreated samples 5 days after infestation. The following compounds gave an effect of at least 80% in at least one of the two categories (mortality or growth inhibition) at an application rate of 200 ppm: 3, 4, 5, 6, 9, 10, 12, 14, 15, 16, 17, 18, 20, 24, 27, 28, 29, 31, 32, 33, 36, 37, 38, 42, 43, 45, 50, 52, 53, 54 and 55.

SMILES | melting point | control (mortality, anti-feedant effect or growth inhibition) at 200 ppm (Spodoptera littoralis) | percent effect (mortality or growth inhibition) at 200 ppm (Diabrotica balteata) | percent effect (mortality or growth inhibition) at 200 ppm (Plutella xylostella) | mortality at 200 ppm (Thrips tabaci) | mortality at 200 ppm (Tetranychus urticae) | percent effect (mortality or growth inhibition) at 200 ppm (Euschistus heros)
Cn1nc(C(F)(F)C(F)(F)F)c(C(F)(F)F)c1-n1cc(-n2cnc(C(=O)NC3CC3)c2)cn1 [Compound 49] | 190 to 191 °C |  |  |  |  |  | 
Cn1nc(C(F)(F)C(F)(F)F)c(C(F)(F)F)c1-n1cc(-c2cc(C(=O)NC3CC3)c(C#N)s2)cn1 [Compound 59] | 171 to 172 °C |  |  |  |  |  | 
Cn1nc(C(F)(F)C(F)(F)F)c(C(F)(F)F)c1-n1cc(-c2cc(C(=O)NC3CC3)sn2)cn1 [Compound 63] | 146 to 148 °C |  |  |  |  |  | 
Cn1nc(C(F)(F)C(F)(F)F)c(C(F)(F)F)c1-n1cc(-n2cc(C(=O)NC3CC3)nn2)cn1 [Compound 68] | 242 to 244 °C |  |  |  |  |  | 
Cn1nc(C(F)(F)C(F)(F)F)c(C(F)(F)F)c1-n1cc(-c2cc(C(=O)NC3CC3)no2)cn1 [Compound 66] | 181 to 183 °C |  |  |  |  |  | 
Cn1nc(C(F)(F)C(F)(F)F)c(C(F)(F)F)c1-n1cc(-c2cnc(C(=O)NC3CC3)s2)cn1 [Compound 65] | 132 to 133 °C |  |  |  |  |  | 
Cn1nc(C(F)(F)C(F)(F)F)c(C(F)(F)F)c1-n1cc(-c2cnc(C(=O)NC3(C#N)CC3)s2)cn1 [Compound 64] | 158 to 159 °C |  |  |  |  |  | 
Cn1nc(C(F)(F)C(F)(F)F)c(C(F)(F)F)c1-n1cc(-c2cc(C(=O)NC3CC3)c(Cl)s2)cn1 [Compound 3, 2-chloro-N-cyclopropyl-5-[1-[2-methyl-5-(1,1,2,2,2-pentafluoroethyl)-4-(trifluoromethyl)pyrazol-3-yl]pyrazol-4-yl]thiophene-3-carboxamide] |  | ≥ 80% | ≥ 80% | ≥ 80% | ≥ 80% | ≥ 80% | ≥ 80%
C=C(Cl)CNC(=O)c1cc(-c2cnn(-c3c(C(F)(F)F)c(C(F)(F)C(F)(F)F)nn3C)c2)sc1Cl [Compound 31] |  | ≥ 80% | ≥ 80% | ≥ 80% | ≥ 80% | ≥ 80% | ≥ 80%
Cn1nc(C(F)(F)C(F)(F)F)c(C(F)(F)F)c1-n1cc(-c2cc(C(=O)NC3(C#N)CC3)c(Cl)s2)cn1 [Compound 4, 2-chloro-N-(1-cyanocyclopropyl)-5-[1-[2-methyl-5-(1,1,2,2,2-pentafluoroethyl)-4-(trifluoromethyl)pyrazol-3-yl]pyrazol-4-yl]thiophene-3-carboxamide] |  | ≥ 80% | ≥ 80% | ≥ 80% | ≥ 80% | ≥ 80% | ≥ 80%
CCNC(=O)c1cc(-c2cnn(-c3c(C(F)(F)F)c(C(F)(F)C(F)(F)F)nn3C)c2)sc1Cl [Compound 20] |  | ≥ 80% | ≥ 80% | ≥ 80% | ≥ 80% | ≥ 80% | ≥ 80%
Cn1nc(C(F)(F)C(F)(F)F)c(OC(F)F)c1-n1cc(-c2cc(C(=O)NC3CC3)c(Cl)s2)cn1 [Compound 37] |  | ≥ 80% | ≥ 80% | ≥ 80% | ≥ 80% | ≥ 80% | ≥ 80%
Cn1nc(C(F)(F)C(F)(F)F)c(C(F)(F)F)c1-n1cc(-n2cc(C(=O)NC3(C#N)CC3)nn2)cn1 [Compound 67] | > 250 °C |  |  |  |  |  | 
Cn1nc(C(F)(F)C(F)(F)F)c(C(F)(F)F)c1-n1cc(-c2cc(C(=O)NCC3CC3)c(Cl)s2)cn1 [Compound 27] |  | ≥ 80% | ≥ 80% | ≥ 80% | ≥ 80% | ≥ 80% | ≥ 80%
Cn1nc(C(F)(F)C(F)(F)F)c(OC(F)F)c1-n1cc(-c2cc(C(=O)NC3(C#N)CC3)c(Cl)s2)cn1 [Compound 38] |  | ≥ 80% | ≥ 80% | ≥ 80% | ≥ 80% | ≥ 80% | ≥ 80%
C=CCNC(=O)c1cc(-c2cnn(-c3c(C(F)(F)F)c(C(F)(F)C(F)(F)F)nn3C)c2)sc1Cl [Compound 29] |  | ≥ 80% | ≥ 80% | ≥ 80% | ≥ 80% | ≥ 80% | ≥ 80%
Cn1nc(C(F)(F)C(F)(F)F)c(C(F)(F)F)c1-n1cc(-n2cnc(C(=O)NC3(C#N)CC3)c2)cn1 [Compound 62] | 195 to 197 °C |  |  |  |  |  | 
Cn1nc(C(F)(F)C(F)(F)F)c(C(F)(F)F)c1-n1cc(-c2cc(C(=O)NC3CC3)c(Br)s2)cn1 [Compound 57] | 192 to 193 °C |  |  |  |  |  | 
CCN(C(=O)c1cc(-c2cnn(-c3c(C(F)(F)F)c(C(F)(F)C(F)(F)F)nn3C)c2)sc1Cl)C1(C#N)CC1 [Compound 10] |  | ≥ 80% | ≥ 80% | ≥ 80% | ≥ 80% | ≥ 80% | ≥ 80%
Cn1nc(C(F)(F)C(F)(F)F)c(C(F)(F)F)c1-n1cc(-c2cc(C(=O)NC3(C#N)CC3)c(Br)s2)cn1 [Compound 61] | 184 to 185 °C |  |  |  |  |  | 
COc1sc(-c2cnn(-c3c(C(F)(F)F)c(C(F)(F)C(F)(F)F)nn3C)c2)cc1C(=O)NC1CC1 [Compound 56] | 152 to 153 °C |  |  |  |  |  | 
Cn1nc(C(F)(F)C(F)(F)F)c(C(F)(F)F)c1-n1cc(-c2cc(C(=O)NC3(C(N)=O)CC3)c(Cl)s2)cn1 [Compound 5, N-(1-carbamoylcyclopropyl)-2-chloro-5-[1-[2-methyl-5-(1,1,2,2,2-pentafluoroethyl)-4-(trifluoromethyl)pyrazol-3-yl]pyrazol-4-yl]thiophene-3-carboxamide] |  | ≥ 80% | ≥ 80% | ≥ 80% | ≥ 80% | ≥ 80% | ≥ 80%

Source: patent US10548317B2, “Pesticidally active pyrazole derivatives” (SYNGENTA PARTICIPATIONS AG, priority 2015, dated 2020)
